Data taken from patent publication US9226902B2, “Stabilized transdermal drug delivery system” (Mylan Technologies Inc., priority 2008, dated 2016).

Experiment: Glass transition temperature (DSC)
Assay type: physicochemical
Conditions: amorphous form
Method: The glass transition temperature of undispersed amorphous scopolamine is about 10° C.

For `CN1[C@@H]2C[C@@H](OC(=O)[C@H](CO)c3ccccc3)C[C@H]1[C@@H]1O[C@@H]12` [undispersed amorphous scopolamine, scopolamine], the “glass transition temperature (Tg)” value was “about 10 °C”.
